This is an account of results in PubChem BioAssay (NCI).

Where “and” joins values, the source holds several entries; their conditions need not be identical. Equal values may be shown once.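 Following 48 hours of exposure in 96-well plates, responses at five concentrations were used to interpolate endpoints linearly. Abbreviation: GI50, concentration required for 50% inhibition of growth. TGI denotes the concentration required for complete inhibition of growth.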

What all share (assay): NCI tumour cell line growth inhibition, 48 h
The test system of experiment [1] is 786-0 renal.
Experiment [2] deals with A549 NSCLC.
Experiment [3] relates to CCRF-CEM leukemia.
Experiment [4] has as its system K-562 leukemia.
The test system of experiment [5] is MCF7 breast.
For experiment [6], the system named is SK-MEL-28 melanoma.
Experiment [7] relates to SN12C renal.
For experiment [8], the system named is SR leukemia.
Experiment [9] has as its system U251 CNS.
The subject of experiment [10] is UO-31 renal.

For the compound `COc1cc(Cc2nccc3cc(OC)c(OC)cc23)c(C(C)=O)cc1OC`, the TGI was above 750 µM in [1]; above 750 µM in [2]; 98.2 µM and 63 µM in [3]; 300 µM in experiment [4]; 300 µM in experiment [5]; 42.1 µM and 331 µM in [6]. The TGI is 30 µM in experiment [7]; above 750 µM in experiment [8]; 300 µM and > 750 µM in experiment [9]; above 750 µM in [10]. For the same compound, the GI50 in experiment [2] was above 750 µM; in experiment [3], 15.4 µM and 16.2 µM; in [4] it was 37.6 µM and 194 µM; in experiment [6], 20.4 µM and 142 µM; in experiment [10], above 750 µM.
In the case of `Nc1ccccc1C#C/C=C\C#Cc1ccccc1N`, the GI50 was 13.7 µM in experiment [1]; 41.5 µM in experiment [2]; 3.93 µM in experiment [3]; 0.583 µM in experiment [4]; 9.98 µM in [5]; 28.7 µM in experiment [6]. Moreover, the GI50 in [7] was 21.8 µM; in experiment [9], 13.9 µM; in experiment [10] it was 11.4 µM. Besides, the TGI in experiment [1] was 42.9 µM; in [2] it was above 100 µM; in experiment [3], 32.4 µM; in experiment [4] it was 14.2 µM; in experiment [5], above 100 µM; in [6], 82 µM. In addition, the TGI in experiment [7] was determined as 54.4 µM; in experiment [9] it was 32.2 µM; in experiment [10], 34.1 µM.
For `CN1CCc2nc(N)nc(-c3nc(N)nc4c3CN(C)CC4)c2C1`, the TGI in experiment [1], in experiment [2], in [4], in experiment [5], in experiment [6] and in [7] was above 100 µM each time. Moreover, the TGI in experiment [8], in experiment [9] and in experiment [10] was above 100 µM in each case.
Turning to `COc1ccc(-c2cc(-c3cc(C)cc(Br)c3O)no2)cc1`, the TGI is 31.6 µM in experiment [1]; 57 µM in [2]; above 100 µM in experiment [4]; 42.4 µM in [5]; above 100 µM in [6]; 85.2 µM in experiment [7]. The TGI is above 100 µM in experiment [8], 33.5 µM in experiment [9] and 31.9 µM in experiment [10].
Take `CC12OC(C(=O)C13CC3)C1C(=O)c3ccc4c(ccc5ccccc54)c3C(=O)C12` (configuration not stated): the GI50 in [1] was 25.3 µM; in experiment [2] it was 45 µM; in experiment [3], 29.5 µM; in experiment [4] it was 47.6 µM; in experiment [5] it was 23.1 µM; in experiment [6], 66.3 µM. For the same compound, the GI50 in experiment [10] was 77.3 µM. The TGI in experiment [1], in [2], in experiment [3], in [4], in experiment [5] and in experiment [6] was above 100 µM throughout. In experiment [10], this compound gave a TGI above 100 µM.
For the compound `COc1c2c(cc3c1OCO3)[C@]13C=C[C@H](OC)C[C@H]1N(C2)CC3O` (some centres not stated), the TGI in experiment [1], in experiment [2], in experiment [3], in experiment [5], in [6] and in experiment [7] was above 100 µM each time. In addition, the TGI in experiment [8], in experiment [9] and in experiment [10] was above 100 µM each time.
In the case of `CCc1nc2cc(F)c(/C=C/C(=O)NO)cc2c(=O)n1CCc1ccccc1`, the GI50 in experiment [1] was 0.309 µM; in [2] it was 0.335 µM; in experiment [3], 0.4 µM; in [4], 0.303 µM; in experiment [5] it was 0.302 µM; in experiment [6], 0.381 µM. Besides, the values for the GI50 in experiment [8], in [9] and in [10] were 0.354 µM, 0.277 µM and 0.2 µM, respectively. For the same compound, the TGI in experiment [1] was 2.03 µM; in experiment [2] it was 2.67 µM; in experiment [3], above 100 µM; in experiment [4], above 100 µM; in experiment [5], above 100 µM; in experiment [6] it was 11.5 µM. In addition, the TGI is 53.3 µM in experiment [8], 0.891 µM in [9] and 0.648 µM in [10].
As to `COc1c(C(=O)/C=C/c2ccccc2)c(O)cc2occc12`, the GI50 in experiment [1] was 16.2 µM; in experiment [2], 8.62 µM; in [4], 4.42 µM; in experiment [5] it was 3.52 µM; in experiment [6], 7.03 µM; in experiment [7] it was 4.48 µM. In addition, the GI50 in [8] was 3.27 µM; in [9], 4.39 µM; in [10] it was 3.14 µM. The TGI is 31.8 µM in experiment [1]; 29 µM in [2]; above 100 µM in [4]; 17.2 µM in experiment [5]; 20.7 µM in [6]; 15.8 µM in [7]. Further, the results for the TGI in experiment [8], in experiment [9] and in [10] were 22.2 µM, 16.1 µM and 11.8 µM, respectively.
As to `O=C1/C(=C(/c2ccccc2)N2CCOCC2)Cc2ccccc21`, the GI50 in [1] was 1.98 µM; in experiment [2], 2.79 µM; in experiment [3], 0.467 µM; in [4] it was 3.42 µM; in [5], 1.54 µM; in [6], 1.45 µM. Further, the GI50 was 2.16 µM in experiment [7], 1.65 µM in experiment [9] and 0.455 µM in experiment [10]. Further, the TGI in experiment [1] turned out to be 3.81 µM; in [2], 8.35 µM; in experiment [3] it was 2.67 µM; in experiment [5] it was 7.38 µM; in experiment [6], 2.85 µM; in experiment [7], 6.33 µM. Also, the TGI worked out at 4.57 µM in [9] and 1.08 µM in [10].
`CCNCCNc1cc(-c2ccc(C(F)(F)F)cc2)c(C#N)c2nc3ccccc3n12`: the GI50 in experiment [1] was 1.57 µM; in experiment [2], 1.75 µM; in experiment [3] it was 0.266 µM; in experiment [5], 0.642 µM; in experiment [6], 1.54 µM; in [7], 1.34 µM. Besides, the GI50 in [8] is 0.343 µM; in experiment [9] it was 0.466 µM; in [10] it was 1.36 µM. For the same compound, the TGI in [1] was 3.06 µM; in experiment [2], 3.41 µM; in [3], 0.683 µM; in [5], 2.18 µM; in experiment [6], 3.05 µM; in experiment [7] it was 2.83 µM. Also, the TGI in experiment [8] worked out at 1.19 µM; in [9], 1.61 µM; in experiment [10], 2.77 µM.
As to `NC(=O)c1cc(Cl)ccc1NC(=O)/C=C/c1ccccc1`, the GI50 was 3.86 µM in [1]; 4.18 µM in experiment [2]; 2.96 µM in experiment [3]; 0.806 µM in experiment [4]; 1.78 µM in [5]; 2.58 µM in experiment [6]. Further, the GI50 in experiment [7] was 5.47 µM; in [9], 2.95 µM; in experiment [10], 10.1 µM. In addition, the TGI in experiment [1] was above 34.8 µM; in [2], above 100 µM; in experiment [3], above 100 µM; in [4], above 23.1 µM; in [5], above 100 µM; in experiment [6] it was above 100 µM. Moreover, the TGI in experiment [7] is above 100 µM; in [9], above 35.4 µM; in experiment [10], above 100 µM.
As to `COc1cc2c(cc1OCCCCC(=O)Nc1cc3c4ccccc4ccc3c3ccccc13)N=C[C@@H]1CCCN1C2=O`, the GI50 was 7.21 µM in [1]; 27.1 µM in [2]; 1.55 µM in experiment [3]; 1.55 µM in experiment [4]; 3.45 µM in experiment [5]; 3.41 µM in [6]. Moreover, the GI50 in experiment [7] is 22.6 µM; in experiment [9], 8.02 µM; in experiment [10], 1.22 µM. The TGI in [1] was 18.8 µM; in experiment [2] it was 61.3 µM; in experiment [3], above 100 µM; in experiment [4], above 38.9 µM; in [5], 34.1 µM; in experiment [6] it was 12.2 µM. In addition, the TGI in [7] is 89.3 µM; in experiment [9], above 100 µM.
Take `OCC1OC(n2cnc3c2NC=NC[C@H]3O)C(Cl)C1O` (some centres not stated): the TGI in [1], in [2], in [3], in [5], in [6] and in [7] was above 100 µM in each case. Further, the TGI in experiment [8], in [9] and in experiment [10] was above 100 µM throughout.
As to `c1cnn(CN(Cn2cccn2)Cn2cccn2)c1`, the TGI in experiment [1], in [2], in [3], in experiment [4], in experiment [6] and in [7] was above 100 µM each time. The TGI in experiment [8], in [9] and in [10] was above 100 µM throughout.
Take `COc1ccc(/C=C/c2c(C(=O)/C=C/c3ccccc3)c(C)nc3ccccc23)cc1`: the GI50 is 1.76 µM in experiment [1]; 2.33 µM in [3]; 2.33 µM in experiment [4]; 1.37 µM in experiment [5]; 1.88 µM in experiment [6]; 2.05 µM in [7]. The GI50 is 1.56 µM in experiment [8], 1.61 µM in experiment [9] and 1.28 µM in experiment [10]. In addition, the TGI was 3.31 µM in experiment [1]; above 100 µM in [3]; 7.19 µM in experiment [4]; 7.74 µM in experiment [5]; 3.47 µM in experiment [6]; 4.63 µM in experiment [7]. For the same compound, the figures for the TGI in experiment [8], in experiment [9] and in experiment [10] were 7.19 µM, 2.96 µM and 2.54 µM, respectively.
As for `CC(C)c1ccc(-c2cc(-c3cn[nH]c3-c3ccccn3)ccn2)cc1`, the GI50 was above 18.8 µM in experiment [1]; 13.7 µM in [2]; 10.8 µM in [3]; 9.03 µM in [4]; above 18.9 µM in experiment [5]; above 25 µM in [6]. Moreover, the GI50 is 15.9 µM in [7], 11.8 µM in experiment [9] and 6.6 µM in experiment [10]. The TGI in [1], in [2], in experiment [3], in experiment [4], in experiment [5] and in experiment [6] was above 25 µM throughout. Moreover, the TGI in experiment [7], in experiment [9] and in [10] was above 25 µM throughout.
`CCOC(=O)C1SC(=Nc2ccc(C)c(C)c2)N=C1C` (configuration not stated): the TGI in [1], in experiment [2], in experiment [3], in [4], in experiment [6] and in [7] was above 100 µM throughout. Besides, the TGI in [8], in experiment [9] and in [10] was above 100 µM in each case.
Take `O=C(N/N=C/c1cc(Br)ccc1O)N/N=C/c1cc(Br)ccc1O`: the TGI in experiment [1], in [2], in [3], in experiment [4], in [6] and in experiment [7] was above 100 µM in each case. In addition, the TGI in experiment [8], in experiment [9] and in experiment [10] was above 100 µM throughout.
For `CN(C)CCC1(C2=CCCC2)CC/C(=C\c2ccc(Cl)cc2)C1=O` (configuration not stated), the TGI was 15.2 µM in [1]; 26.9 µM in experiment [2]; above 22.7 µM in experiment [3]; above 23.2 µM in experiment [4]; 7.4 µM in experiment [6]; 24.3 µM in [7]. Besides, the TGI amounted to 7.42 µM in experiment [8], 21.8 µM in [9] and 18.8 µM in experiment [10].
For `C=CCCCCC/C=C\[C@@H](O)C#CC#C/C=C/CO`, the GI50 in experiment [1] was above 100 µM; in experiment [2] it was above 100 µM; in experiment [4] it was 18.5 µM; in [5], 32.7 µM; in experiment [6] it was 0.867 µM; in experiment [7] it was 57.5 µM. In addition, the figures for the GI50 in experiment [9] and in [10] were 38.7 µM and above 100 µM, respectively. Also, the TGI in experiment [1] was above 100 µM; in experiment [2], above 100 µM; in experiment [4], 37.5 µM; in experiment [5], above 100 µM; in experiment [6] it was above 100 µM; in experiment [7], above 100 µM. The TGI in experiment [9] and in experiment [10] was above 100 µM in each case.
